Assays:
[1] = tested on: Monochoria vaginalis, Presl.; experiment: Preemergence weed control under flooded paddy conditions, MOOVA (Monochoria); assay type: in vivo; conditions: preemergence, flooded paddy; as to herbicidal effect rating, MOOVA: meaning of each grade not given here
Sagittaria pygmaea, L. = experiment: Preemergence weed control under flooded paddy conditions, SAGPY (Arrowhead (Pygmaea)); assay type: in vivo; conditions: preemergence, flooded paddy; as to herbicidal effect rating, SAGPY: meaning of each grade not given here
[2] = tested on: Oryza sativa, (L.) Tebonnet; experiment: Rice tolerance to post-transplant applications under flooded paddy conditions (Example 187), ORYSAT (Rice, Tebonnet); as to herbicidal effect rating ORYSAT: meaning of each grade not given here
[3] = tested on: Cyperus serotinus, Rottb.; experiment: Preemergence weed control under flooded paddy conditions, CYPSE (Flatsedge); assay type: in vivo; conditions: preemergence; as to herbicidal effect rating, CYPSE: meaning of each grade not given here
Cyperus iria = experiment: Preemergence weed control under flooded paddy conditions, CYPIR (Rice Flatsedge); assay type: in vivo; conditions: preemergence, flooded paddy; as to herbicidal effect rating, CYPIR: meaning of each grade not given here
[4] = tested on: Echinochloa oryzoides (Ard.) Fritsch.; experiment: Preemergence weed control under flooded paddy conditions, ECHORC (Watergrass (Calif.)); assay type: in vivo; conditions: preemergence, flooded paddy; as to herbicidal effect rating, ECHORC: meaning of each grade not given here
[5] = Rate 0.0320 kg/ha, rated three to four weeks after treatment
[6] = Rate 0.0620 kg/ha, rated three to four weeks after treatment
[7] = Rate 0.1250 kg/ha, rated three to four weeks after treatment
[8] = Rate 0.2500 kg/ha, rated three to four weeks after treatment
[9] = Rate 0.0320 kg/ha, rated 3-4 weeks after treatment
[10] = Rate 0.0620 kg/ha, rated 3-4 weeks after treatment
[11] = Rate 0.1250 kg/ha, rated 3-4 weeks after treatment
[12] = Rate 0.2500 kg/ha, rated 3-4 weeks after treatment

Structure (SMILES): CCCS(=O)(=O)NC(=O)C(C)Oc1ccc(C)cc1-c1nsc2ccc(-n3c(=O)cc(C(F)(F)F)n(C)c3=O)cc12 (stereo not drawn) [Example 569, Propionamide, 2-{{2-{5-[3,6-dihydro-3-methyl-2,6-dioxo-4-(trifluoromethyl)-1(2H)-pyrimidinyl]-1,2-benzisothiazol-3-yl}-p-tolyl}oxy}-N-(propyl-sulfonyl)-]
- herbicidal effect rating, MOOVA [1, 5]: 4.0
- herbicidal effect rating, MOOVA [1, 6]: 6.0
- herbicidal effect rating, MOOVA [1, 7]: 6.0
- herbicidal effect rating, MOOVA [1, 8]: 6.0
- herbicidal effect rating, SAGPY (Sagittaria pygmaea, L.; [5]): 0.0
- herbicidal effect rating, SAGPY (Sagittaria pygmaea, L.; [6]): 0.0
- herbicidal effect rating, SAGPY (Sagittaria pygmaea, L.; [7]): 0.0
- herbicidal effect rating, SAGPY (Sagittaria pygmaea, L.; [8]): 9.0
- herbicidal effect rating ORYSAT [2, 5]: 0.0
- herbicidal effect rating ORYSAT [2, 6]: 0.0
- herbicidal effect rating ORYSAT [2, 7]: 0.0
- herbicidal effect rating ORYSAT [2, 8]: 1.0
- herbicidal effect rating, CYPSE [3, 5]: 0.0
- herbicidal effect rating, CYPSE [3, 6]: 0.0
- herbicidal effect rating, CYPSE [3, 7]: 0.0
- herbicidal effect rating, CYPSE [3, 8]: 0.0
- herbicidal effect rating, CYPIR (Cyperus iria; [5]): 0.0
- herbicidal effect rating, CYPIR (Cyperus iria; [6]): 0.0
- herbicidal effect rating, CYPIR (Cyperus iria; [7]): 0.0
- herbicidal effect rating, CYPIR (Cyperus iria; [8]): 0.0
- herbicidal effect rating, ECHORC [4, 5]: 2.0
- herbicidal effect rating, ECHORC [4, 6]: 4.0
- herbicidal effect rating, ECHORC [4, 7]: 5.0
- herbicidal effect rating, ECHORC [4, 8]: 5.0

Structure (SMILES): CCOP(=O)(Cc1nsc2cc(F)c(-n3c(=O)cc(C(F)(F)F)n(C)c3=O)cc12)OCC [Example 377, 1,2-Benzisothiazole-3-methanephosphonic acid, 5-[3,6-dihydro-3-methyl-2,6-dioxo-4-(trifluoromethyl)-1(2H)-pyrimidinyl]-6-fluoro-, diethyl ester]
- herbicidal effect rating, MOOVA [1, 5]: 9.0
- herbicidal effect rating, MOOVA [1, 6]: 9.0
- herbicidal effect rating, MOOVA [1, 7]: 9.0
- herbicidal effect rating, MOOVA [1, 8]: 9.0
- herbicidal effect rating, SAGPY (Sagittaria pygmaea, L.; [5]): 0.0
- herbicidal effect rating, SAGPY (Sagittaria pygmaea, L.; [6]): 4.0
- herbicidal effect rating, SAGPY (Sagittaria pygmaea, L.; [7]): 8.5
- herbicidal effect rating, SAGPY (Sagittaria pygmaea, L.; [8]): 9.0
- herbicidal effect rating ORYSAT [2, 5]: 5.5
- herbicidal effect rating ORYSAT [2, 6]: 6.5
- herbicidal effect rating ORYSAT [2, 7]: 8.0
- herbicidal effect rating ORYSAT [2, 8]: 9.0
- herbicidal effect rating, CYPSE [3, 5]: 1.0
- herbicidal effect rating, CYPSE [3, 6]: 3.0
- herbicidal effect rating, CYPSE [3, 7]: 5.0
- herbicidal effect rating, CYPSE [3, 8]: 8.5
- herbicidal effect rating, CYPIR (Cyperus iria; [5]): 2.0
- herbicidal effect rating, CYPIR (Cyperus iria; [6]): 3.0
- herbicidal effect rating, CYPIR (Cyperus iria; [7]): 4.5
- herbicidal effect rating, CYPIR (Cyperus iria; [8]): 8.0
- herbicidal effect rating, ECHORC [4, 5]: 2.0
- herbicidal effect rating, ECHORC [4, 6]: 5.0
- herbicidal effect rating, ECHORC [4, 7]: 7.0
- herbicidal effect rating, ECHORC [4, 8]: 9.0

Structure (SMILES): CC(=O)NCCOC(=O)c1nsc2ccc(-n3c(=O)cc(C(F)(F)F)n(C)c3=O)cc12 [Example 387, 1,2-Benzisothiazole-3-carboxylic acid, 5-[3,6-dihydro-3-methyl-2,6-dioxo-4-(trifluoromethyl)-1(2H)-pyrimidinyl]-, 2-acetamidoethyl ester]
- herbicidal effect rating, MOOVA [1, 5]: 4.0
- herbicidal effect rating, MOOVA [1, 6]: 9.0
- herbicidal effect rating, MOOVA [1, 7]: 9.0
- herbicidal effect rating, MOOVA [1, 8]: 9.0
- herbicidal effect rating, SAGPY (Sagittaria pygmaea, L.; [5]): 3.0
- herbicidal effect rating, SAGPY (Sagittaria pygmaea, L.; [6]): 4.0
- herbicidal effect rating, SAGPY (Sagittaria pygmaea, L.; [7]): 5.0
- herbicidal effect rating, SAGPY (Sagittaria pygmaea, L.; [8]): 6.0
- herbicidal effect rating ORYSAT [2, 5]: 0.0
- herbicidal effect rating ORYSAT [2, 6]: 0.0
- herbicidal effect rating ORYSAT [2, 7]: 2.0
- herbicidal effect rating ORYSAT [2, 8]: 2.0
- herbicidal effect rating, CYPSE [3, 5]: 2.0
- herbicidal effect rating, CYPSE [3, 6]: 5.0
- herbicidal effect rating, CYPSE [3, 7]: 5.0
- herbicidal effect rating, CYPSE [3, 8]: 5.0
- herbicidal effect rating, CYPIR (Cyperus iria; [5]): 0.0
- herbicidal effect rating, CYPIR (Cyperus iria; [6]): 5.0
- herbicidal effect rating, CYPIR (Cyperus iria; [7]): 6.0
- herbicidal effect rating, CYPIR (Cyperus iria; [8]): 7.0
- herbicidal effect rating, ECHORC [4, 5]: 0.0
- herbicidal effect rating, ECHORC [4, 6]: 0.0
- herbicidal effect rating, ECHORC [4, 7]: 0.0
- herbicidal effect rating, ECHORC [4, 8]: 3.0

Structure (SMILES): CCCCCCCCCOC(=O)COc1ccc(C)cc1-c1nsc2ccc(-n3c(=O)cc(C(F)(F)F)n(C)c3=O)cc12 [Example 519, Acetic acid, {{2-{5-[3,6-dihydro-3-methyl-2,6-dioxo-4-(trifluoromethyl)-1(2H)-pyrimidinyl]-1,2-benzisothiazol-3-yl}-p-tolyl}oxy}-, nonyl ester]
- herbicidal effect rating, MOOVA [1, 9]: 9.0
- herbicidal effect rating, MOOVA [1, 10]: 9.0
- herbicidal effect rating, MOOVA [1, 11]: 9.0
- herbicidal effect rating, MOOVA [1, 12]: 9.0
- herbicidal effect rating, SAGPY (Sagittaria pygmaea, L.; [9]): 0.0
- herbicidal effect rating, SAGPY (Sagittaria pygmaea, L.; [10]): 0.0
- herbicidal effect rating, SAGPY (Sagittaria pygmaea, L.; [11]): 0.0
- herbicidal effect rating, SAGPY (Sagittaria pygmaea, L.; [12]): 0.0
- herbicidal effect rating ORYSAT [2, 9]: 2.0
- herbicidal effect rating ORYSAT [2, 10]: 4.0
- herbicidal effect rating ORYSAT [2, 11]: 4.5
- herbicidal effect rating ORYSAT [2, 12]: 4.0
- herbicidal effect rating, CYPSE [3, 9]: 0.0
- herbicidal effect rating, CYPSE [3, 10]: 0.0
- herbicidal effect rating, CYPSE [3, 11]: 0.0
- herbicidal effect rating, CYPSE [3, 12]: 0.0
- herbicidal effect rating, CYPIR (Cyperus iria; [9]): 0.0
- herbicidal effect rating, CYPIR (Cyperus iria; [10]): 0.0
- herbicidal effect rating, CYPIR (Cyperus iria; [11]): 2.0
- herbicidal effect rating, CYPIR (Cyperus iria; [12]): 6.0
- herbicidal effect rating, ECHORC [4, 9]: 2.0
- herbicidal effect rating, ECHORC [4, 10]: 4.0
- herbicidal effect rating, ECHORC [4, 11]: 6.5
- herbicidal effect rating, ECHORC [4, 12]: 9.0

Structure (SMILES): Cn1c(C(F)(F)F)cc(=O)n(-c2ccc3snc(C=C(F)Br)c3c2)c1=O [Example 286, 2,4(1H,3H)-Pyrimidinedione, 3-[3-(2-bromo-2-fluorovinyl)-1,2-benzisothiazol-5-yl]-1-methyl-6-(trifluoromethyl)-]
- MOOVA herbicidal effect rating [1, 5]: 9.0
- MOOVA herbicidal effect rating [1, 6]: 9.0
- MOOVA herbicidal effect rating [1, 7]: 9.0
- MOOVA herbicidal effect rating [1, 8]: 9.0
- SAGPY herbicidal effect rating (Sagittaria pygmaea, L.; [5]): 0.0
- SAGPY herbicidal effect rating (Sagittaria pygmaea, L.; [6]): 0.0
- SAGPY herbicidal effect rating (Sagittaria pygmaea, L.; [7]): 0.0
- SAGPY herbicidal effect rating (Sagittaria pygmaea, L.; [8]): 0.0
- ORYSAT herbicidal effect rating [2, 5]: 0.0
- ORYSAT herbicidal effect rating [2, 6]: 0.0
- ORYSAT herbicidal effect rating [2, 7]: 1.0
- ORYSAT herbicidal effect rating [2, 8]: 2.0
- CYPSE herbicidal effect rating [3, 5]: 0.0
- CYPSE herbicidal effect rating [3, 6]: 0.0
- CYPSE herbicidal effect rating [3, 7]: 0.0
- CYPSE herbicidal effect rating [3, 8]: 0.0
- CYPIR herbicidal effect rating (Cyperus iria; [5]): 3.0
- CYPIR herbicidal effect rating (Cyperus iria; [6]): 7.0
- CYPIR herbicidal effect rating (Cyperus iria; [7]): 7.0
- CYPIR herbicidal effect rating (Cyperus iria; [8]): 9.0
- ECHORC herbicidal effect rating [4, 5]: 0.0
- ECHORC herbicidal effect rating [4, 6]: 0.0
- ECHORC herbicidal effect rating [4, 7]: 3.0
- ECHORC herbicidal effect rating [4, 8]: 8.0

Structure (SMILES): Cc1ccc(OCC(=O)N(C)O)c(-c2nsc3ccc(-n4c(=O)cc(C(F)(F)F)n(C)c4=O)cc23)c1 [Example 355, Acetohydroxamic acid, 2-{{2-{5-[3,6-dihydro-3-methyl-2,6-dioxo-4-(trifluoromethyl)-1(2H)pyrimidinyl]-1,2-benzisothiazol-3-yl}-p-tolyl}oxy}-N-methyl-]
- herbicidal effect rating, MOOVA [1, 5]: 9.0
- herbicidal effect rating, MOOVA [1, 6]: 9.0
- herbicidal effect rating, MOOVA [1, 7]: 9.0
- herbicidal effect rating, MOOVA [1, 8]: 9.0
- herbicidal effect rating, SAGPY (Sagittaria pygmaea, L.; [5]): 2.0
- herbicidal effect rating, SAGPY (Sagittaria pygmaea, L.; [6]): 4.5
- herbicidal effect rating, SAGPY (Sagittaria pygmaea, L.; [7]): 4.5
- herbicidal effect rating, SAGPY (Sagittaria pygmaea, L.; [8]): 9.0
- herbicidal effect rating ORYSAT [2, 5]: 2.5
- herbicidal effect rating ORYSAT [2, 6]: 3.0
- herbicidal effect rating ORYSAT [2, 7]: 5.5
- herbicidal effect rating ORYSAT [2, 8]: 5.0
- herbicidal effect rating, CYPSE [3, 5]: 0.0
- herbicidal effect rating, CYPSE [3, 6]: 1.0
- herbicidal effect rating, CYPSE [3, 7]: 3.5
- herbicidal effect rating, CYPSE [3, 8]: 5.0
- herbicidal effect rating, CYPIR (Cyperus iria; [5]): 4.5
- herbicidal effect rating, CYPIR (Cyperus iria; [6]): 4.5
- herbicidal effect rating, CYPIR (Cyperus iria; [7]): 6.5
- herbicidal effect rating, CYPIR (Cyperus iria; [8]): 5.0
- herbicidal effect rating, ECHORC [4, 5]: 7.0
- herbicidal effect rating, ECHORC [4, 6]: 9.0
- herbicidal effect rating, ECHORC [4, 7]: 9.0
- herbicidal effect rating, ECHORC [4, 8]: 9.0

Source: patent publication EP0908457B1, “3-(1,2-benzisothiazol- and isoxazol-5-Y1)-2,4(1H,3H)-pyrimidinedione or thione and 3-(1,2-benzisothiazol- and isoxazol-5-y1)-4(3H)-pyrimidinone or thione herbicidal agents” (BASF AKTIENGESELLSCHAFT, priority 1997, dated 1999)
